Laboratory results taken from US11806342B2, “Diiodohydroxyquinoline for the treatment of clostridium difficile infection” (Purdue Research Foundation, priority 2019, dated 2023).
Values after ≈ are worked out from the molar mass of the structure shown. Read-outs that look alike come from different tables or passages of the source.

Key:
Assay type in all cases: cell-based, Clostridium difficile
C. difficile ATCC 43255 [1] = experiment: Initial screening of antiparasitic drugs, broth microdilution MIC; details: Clostridioides difficile, ATCC43255
Protocol: C. difficile strains were grown anaerobically on brain heart infusion supplemented (BHIS) agar plates at 37° C. for 48 hours. Afterwards, a bacterial solution equivalent to 0.5 McFarland standard was prepared and diluted in (BHIS) broth to achieve a bacterial concentration of about 5×10^5 CFU/mL. Drugs were added and serially diluted along the plates. Plates were then, incubated anaerobically at 37° C. for 48 hours. MICs reported in Table (1) are the minimum concentrations of the drugs that could completely suppress the visual growth of bacteria.

C. difficile ATCC 1801 [2] = experiment: MIC and MBC, broth microdilution; details: Clostridioides difficile, ATCC1801
Protocol: (§1) Antibacterial activity of Diiodohydroxyquinoline against a wide panel of Clostridium difficile strains. […] MIC50 and MIC90 are the minimum concentration of each agent that inhibited growth of 50% and 90% of the tested isolates, respectively. The minimum bactericidal concentration (MBC) of these drugs was tested by plating 5 μL from wells with no growth onto BHIS agar plates. The MBC was categorized as the lowest concentration that reduced bacterial growth by 99.9% MIC50 and MIC90 are the minimum concentration of each agent that inhibited the growth of 50% and 90% of the tested isolates, respectively. The minimum bactericidal concentration (MBC) of these drugs was tested by plating 5 μL from wells with no growth onto BHIS agar plates. The MBC was categorized as the lowest concentration that reduced bacterial growth by 99.9% [29-31].

C. difficile ATCC 43255 [3] = experiment: MIC and MBC, broth microdilution; details: Clostridioides difficile, ATCC43255
Protocol: as §1

C. difficile I10 = experiment: MIC and MBC, broth microdilution; details: Clostridioides difficile
Protocol: as §1

C. difficile I6 [4] = experiment: MIC and MBC, broth microdilution; details: Clostridioides difficile
Protocol: as §1

C. difficile NR-49285 = experiment: MIC and MBC, broth microdilution; details: Clostridioides difficile, NR49285
Protocol: as §1

C. difficile NR-49288 = experiment: MIC and MBC, broth microdilution; details: Clostridioides difficile, NR49288
Protocol: as §1

C. difficile P20 = experiment: MIC and MBC, broth microdilution; details: Clostridioides difficile
Protocol: as §1

C. difficile P6 = experiment: MIC and MBC, broth microdilution; details: Clostridioides difficile
Protocol: as §1

[5] = system: C. difficile ATCC BAA-1870; experiment: Time kill kinetics assay; details: C. difficile ATCC BAA-1870, 5×MIC
Protocol: (§2) Time kill kinetics assay. In order to examine the killing kinetics of DIHQ, a time kill kinetics assay was performed against Clostridium difficile ATCC BAA 1870 and C. difficile NR-49277 as described previously. […] Aliquots were collected from each treatment after 0, 4, 6, 8, 12, and 24 hours of incubation at 37° C. and subsequently serially diluted and plated for viable CFU/mL determination.

C. difficile NR-49277 [6] = experiment: Time kill kinetics assay; details: C. difficile NR-49277, 5×MIC
Protocol: as §2

C. difficile ATCC 1801 [7] = experiment: Checkerboard assay, DIHQ with metronidazole or vancomycin; details: for MIC: Clostridioides difficile
Protocol: (§3) Interactions between diiodohydroxyquinoline and the anticlostridial drugs (metronidazole and vancomycin) against Clostridium difficile clinical isolates. […] The fractional inhibitory concentration index (ΣFIC) was calculated for each interaction. Interactions where the ΣFIC index was ≤0.5 were categorized as synergistic (SYN).

C. difficile ATCC 9689 = experiment: as above; details: for MIC: Clostridioides difficile
Protocol: as §3

C. difficile I6 [8] = experiment: as above; details: for MIC: Clostridioides difficile
Protocol: as §3

C. difficile P11 = experiment: as above; details: for MIC: Clostridioides difficile
Protocol: as §3

C. difficile P19 = experiment: as above; details: for MIC: Clostridioides difficile
Protocol: as §3

C. difficile P30 = experiment: as above; details: for MIC: Clostridioides difficile
Protocol: as §3

C. difficile ATCC 43255 [9] = experiment: Toxin A and B production inhibition, ELISA; details: C. difficile ATCC 43255, ¼×MIC and ½×MIC
Protocol: (§4) To investigate DIHQs toxin production inhibitory activity, toxin A and toxin B levels were measured as described previously. […] An aliquot from each tube was diluted and plated on BHIS agar plates and incubated anaerobically at 37° C. for 24 hours to detect the bacterial count. The total concentration of C. difficile toxin A and B was measured in the supernatant of each tube using enzyme linked immunosorbent assay (ELISA) kit (tgc BIOMICS, Dunwoody, GA) following the manufacturer's instructions. The (OD450-OD620) values, corresponding to the toxin concentration, were measured for DIHQ and control drugs.

[10] = system: C. difficile ATCC BAA-1870; experiment: Toxin A and B production inhibition, ELISA; details: C. difficile ATCC BAA-1870, ¼×MIC and ½×MIC
Protocol: as §4

C. difficile NR-49277 [11] = experiment: Toxin A and B production inhibition, ELISA; details: C. difficile NR-49277, ¼×MIC and ½×MIC
Protocol: as §4

SMILES: Cc1ncc([N+](=O)[O-])n1CCO [Metronidazole, metronidazole]
- MIC (C. difficile ATCC 43255 [1]; initial screening, C. difficile ATCC 43255, read-out: MIC): 0.25 µg/mL (≈ 1.46 µM)
- MBC (C. difficile ATCC 1801 [2]; C. difficile ATCC 1801, read-out: MBC): 0.25 µg/mL (≈ 1.46 µM)
- MIC (C. difficile ATCC 1801 [2]; C. difficile ATCC 1801, read-out: MIC): 0.25 µg/mL (≈ 1.46 µM)
- MBC (C. difficile ATCC 43255 [3]; C. difficile ATCC 43255, read-out: MBC): 0.25 µg/mL (≈ 1.46 µM)
- MIC (C. difficile ATCC 43255 [3]; C. difficile ATCC 43255, read-out: MIC): 0.25 µg/mL (≈ 1.46 µM)
- MBC (C. difficile I10; C. difficile I10, read-out: MBC): 0.25 µg/mL (≈ 1.46 µM)
- MIC (C. difficile I10; C. difficile I10, read-out: MIC): 0.25 µg/mL (≈ 1.46 µM)
- MBC (C. difficile I6 [4]; C. difficile I6, read-out: MBC): 0.25 µg/mL (≈ 1.46 µM)
- MIC (C. difficile I6 [4]; C. difficile I6, read-out: MIC): 0.25 µg/mL (≈ 1.46 µM)
- MBC (C. difficile NR-49285; C. difficile NR-49285, read-out: MBC): 0.5 µg/mL (≈ 2.92 µM)
- MIC (C. difficile NR-49285; C. difficile NR-49285, read-out: MIC): 0.25 µg/mL (≈ 1.46 µM)
- MBC (C. difficile NR-49288; C. difficile NR-49288, read-out: MBC): 0.25 µg/mL (≈ 1.46 µM)
- MIC (C. difficile NR-49288; C. difficile NR-49288, read-out: MIC): 0.25 µg/mL (≈ 1.46 µM)
- MBC (C. difficile P20; C. difficile P20, read-out: MBC): 0.25 µg/mL (≈ 1.46 µM)
- MIC (C. difficile P20; C. difficile P20, read-out: MIC): 0.25 µg/mL (≈ 1.46 µM)
- MBC (C. difficile P6; C. difficile P6, read-out: MBC): 0.25 µg/mL (≈ 1.46 µM)
- MIC (C. difficile P6; C. difficile P6, read-out: MIC): 0.25 µg/mL (≈ 1.46 µM)
- time required to generate a 3-log10 reduction in CFU/mL ([5]; 37° C.): 12 hours
- time required to generate a 3-log10 reduction in CFU/mL (C. difficile NR-49277 [6]; 37° C.): 12 hours
- MIC of metronidazole combined with DIHQ (C. difficile ATCC 1801 [7]; C. difficile ATCC 1801): 0.03 µg/mL
- MIC (C. difficile ATCC 1801 [7]; ATCC1801, C. difficile ATCC 1801, Table 3, read-out: MIC alone): 0.25 µg/mL
- MIC of metronidazole combined with DIHQ (C. difficile ATCC 9689; C. difficile ATCC 9689): 0.03 µg/mL
- MIC (C. difficile ATCC 9689; ATCC9689, C. difficile ATCC 9689, Table 3, read-out: MIC alone): 0.25 µg/mL
- MIC of metronidazole combined with DIHQ (C. difficile I6 [8]; C. difficile I6): 0.03 µg/mL
- MIC (C. difficile I6 [8]; C. difficile I6, Table 3, read-out: MIC alone): 0.25 µg/mL
- MIC of metronidazole combined with DIHQ (C. difficile P11; C. difficile P11): 0.03 µg/mL
- MIC (C. difficile P11; C. difficile P11, Table 3, read-out: MIC alone): 0.25 µg/mL
- MIC of metronidazole combined with DIHQ (C. difficile P19; C. difficile P19): 0.06 µg/mL
- MIC (C. difficile P19; C. difficile P19, Table 3, read-out: MIC alone): 0.5 µg/mL
- MIC of metronidazole combined with DIHQ (C. difficile P30; C. difficile P30): 0.06 µg/mL
- MIC (C. difficile P30; C. difficile P30, Table 3, read-out: MIC alone): 0.5 µg/mL
- toxin inhibition (in words) (C. difficile ATCC 43255 [9]): No toxin inhibition
- toxin inhibition (in words) [10]: No toxin inhibition
- toxin inhibition (in words) (C. difficile NR-49277 [11]): No toxin inhibition

SMILES: CN[C@H](CC(C)C)C(=O)N[C@H]1C(=O)N[C@@H](CC(N)=O)C(=O)N[C@H]2C(=O)N[C@H]3C(=O)N[C@H](C(=O)N[C@H](C(=O)O)c4cc(O)cc(O)c4-c4cc3ccc4O)[C@H](O)c3ccc(c(Cl)c3)Oc3cc2cc(c3O[C@@H]2O[C@H](CO)[C@@H](O)[C@H](O)[C@H]2O[C@H]2C[C@](C)(N)[C@H](O)[C@H](C)O2)Oc2ccc(cc2Cl)[C@H]1O [Vancomycin, vancomycin]
- MIC (C. difficile ATCC 43255 [1]): 1 µg/mL (≈ 0.69 µM)
- MBC (C. difficile ATCC 1801 [2]): 1 µg/mL (≈ 0.69 µM)
- MIC (C. difficile ATCC 1801 [2]): 1 µg/mL (≈ 0.69 µM)
- MBC (C. difficile ATCC 43255 [3]): 1 µg/mL (≈ 0.69 µM)
- MIC (C. difficile ATCC 43255 [3]): 1 µg/mL (≈ 0.69 µM)
- MBC (C. difficile I10; I10): 1 µg/mL (≈ 0.69 µM)
- MIC (C. difficile I10; I10): 0.5 µg/mL (≈ 0.345 µM)
- MBC (C. difficile I6 [4]; I6): 0.5 µg/mL (≈ 0.345 µM)
- MIC (C. difficile I6 [4]; I6): 0.5 µg/mL (≈ 0.345 µM)
- MBC (C. difficile NR-49285): 0.5 µg/mL (≈ 0.345 µM)
- MIC (C. difficile NR-49285): 0.5 µg/mL (≈ 0.345 µM)
- MBC (C. difficile NR-49288): 1 µg/mL (≈ 0.69 µM)
- MIC (C. difficile NR-49288): 0.5 µg/mL (≈ 0.345 µM)
- MBC (C. difficile P20; P20): 1 µg/mL (≈ 0.69 µM)
- MIC (C. difficile P20; P20): 1 µg/mL (≈ 0.69 µM)
- MBC (C. difficile P6; P6): 1 µg/mL (≈ 0.69 µM)
- MIC (C. difficile P6; P6): 1 µg/mL (≈ 0.69 µM)
- reduction of bacterial burden within 24 hours ([5]; 24 hours): 1.7 log10 CFU/mL
- reduction of bacterial burden within 24 hours (C. difficile NR-49277 [6]; 24 hours): 1.22 log10 CFU/mL
- MIC of vancomycin combined with DIHQ (C. difficile ATCC 1801 [7]; C. difficile ATCC 1801): 0.06 µg/mL
- MIC (C. difficile ATCC 1801 [7]; ATCC1801, read-out: MIC alone): 0.5 µg/mL
- MIC of vancomycin combined with DIHQ (C. difficile ATCC 9689; C. difficile ATCC 9689): 0.125 µg/mL
- MIC (C. difficile ATCC 9689; ATCC9689, read-out: MIC alone): 1 µg/mL
- MIC of vancomycin combined with DIHQ (C. difficile I6 [8]; C. difficile I6): 0.06 µg/mL
- MIC (C. difficile I6 [8]; I6, read-out: MIC alone): 0.5 µg/mL
- MIC of vancomycin combined with DIHQ (C. difficile P11; C. difficile P11): 0.125 µg/mL
- MIC (C. difficile P11; P11, read-out: MIC alone): 1 µg/mL
- MIC of vancomycin combined with DIHQ (C. difficile P19; C. difficile P19): 0.125 µg/mL
- MIC (C. difficile P19; P19, read-out: MIC alone): 1 µg/mL
- MIC of vancomycin combined with DIHQ (C. difficile P30; C. difficile P30): 0.125 µg/mL
- MIC (C. difficile P30; P30, read-out: MIC alone): 1 µg/mL
- toxin inhibition (in words) (C. difficile ATCC 43255 [9]): No toxin inhibition
- toxin inhibition (in words) [10]: No toxin inhibition
- toxin inhibition (in words) (C. difficile NR-49277 [11]): No toxin inhibition
